Experimental data taken from the supplement of paper PMC11208160.

Test: recombinant barcode read abundance after kanamycin selection (control-corrected) (log10(CPM+1)); higher = more efficient recombination; sequences stand for … in AGTGCAGAGAAAATCGGCCAGTTTTCTCTGCCTGCAGTCCGCATGCCGT…ATTTATGCAGCGGACTGCCTTTCTCCCAAAGTGATAAACCGGACAGTATCATGGACCGGTTTTCCCGGTAATCCGTATTTGCAAGGTTGGTTTCACT; site = the 11-nt target
Protocol: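 Same pooled E. coli target screen (IS621 bridge recombinase, kanamycin selection, control-corrected CPM, mean of 2 biological replicates). Here the two core-binding nucleotides of the LTG and RTG of the bridge RNA target-binding loop are mutated. Target and donor CT cores are held constant, and the other 9 guide positions match the target. The target is read from the library oligo sequence. Molecule = full bridge RNA written as DNA: nt 1-80 from the library oligo, rest WT scaffold.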

Point of comparison: “ATGTCCCAATGGGTTCTAACCTGTTGCTCTT [ATGTCCCCTGA_LTGcore_AA_RTGcore_AA] (site ATGTCCCCTGA) (LTG core: AA, RTG core: AA)”, “recombinant barcode read abundance (log10)” value 0.133. Against it:
- AGTCTTAGCTGGGTTCTAACCTGTTGCCAAG [AGTCTTACTTG_LTGcore_GC_RTGcore_CT] (site AGTCTTACTTG) (LTG core: GC, RTG core: CT) — within 0.2 log units, 0.0805
- AGTCTTAGGTGGGTTCTAACCTGTTGCCAAG [AGTCTTACTTG_LTGcore_GG_RTGcore_CT] (site AGTCTTACTTG) (LTG core: GG, RTG core: CT) — within 0.2 log units, 0
- AGTCTTAGTTGGGTTCTAACCTGTTGCCAAG [AGTCTTACTTG_LTGcore_GT_RTGcore_CT] (site AGTCTTACTTG) (LTG core: GT, RTG core: CT) — within 0.2 log units, 0.0538
- AGTCTTATCTGGGTTCTAACCTGTTGCCAAG [AGTCTTACTTG_LTGcore_TC_RTGcore_CT] (site AGTCTTACTTG) (LTG core: TC, RTG core: CT) — within 0.2 log units, 0.0237
- ATGCTTTAATGGGTTCTAACCTGTTGCCTTT [ATGCTTTCTAG_LTGcore_AA_RTGcore_AA] (site ATGCTTTCTAG) (LTG core: AA, RTG core: AA) — within 0.2 log units, 0.125
- ATGCTTTACTGGGTTCTAACCTGTTGCCTGT [ATGCTTTCTAG_LTGcore_AC_RTGcore_AC] (site ATGCTTTCTAG) (LTG core: AC, RTG core: AC) — within 0.2 log units, 0.0458
- ATGCTTTCTTGGGTTCTAACCTGTTGCCTAA [ATGCTTTCTAG_LTGcore_CT_RTGcore_TT] (site ATGCTTTCTAG) (LTG core: CT, RTG core: TT) — within 0.2 log units, 0.322
- ATGCTTTCTTGGGTTCTAACCTGTTGCCTCA [ATGCTTTCTAG_LTGcore_CT_RTGcore_TG] (site ATGCTTTCTAG) (LTG core: CT, RTG core: TG) — within 0.2 log units, 0.153
- ATGCTTTCTTGGGTTCTAACCTGTTGCCTCC [ATGCTTTCTAG_LTGcore_CT_RTGcore_GG] (site ATGCTTTCTAG) (LTG core: CT, RTG core: GG) — within 0.2 log units, 0.127
- ATGCTTTCTTGGGTTCTAACCTGTTGCCTGG [ATGCTTTCTAG_LTGcore_CT_RTGcore_CC] (site ATGCTTTCTAG) (LTG core: CT, RTG core: CC) — higher, 0.57
- ATGCTTTTGTGGGTTCTAACCTGTTGCCTCA [ATGCTTTCTAG_LTGcore_TG_RTGcore_TG] (site ATGCTTTCTAG) (LTG core: TG, RTG core: TG) — within 0.2 log units, 0.313
- ATGTCCCATTGGGTTCTAACCTGTTGCTCAT [ATGTCCCCTGA_LTGcore_AT_RTGcore_AT] (site ATGTCCCCTGA) (LTG core: AT, RTG core: AT) — within 0.2 log units, 0.0551
- ATGTCCCCATGGGTTCTAACCTGTTGCTCTG [ATGTCCCCTGA_LTGcore_CA_RTGcore_CA] (site ATGTCCCCTGA) (LTG core: CA, RTG core: CA) — within 0.2 log units, 0.0134
- ATGTCCCCCTGGGTTCTAACCTGTTGCTCAG [ATGTCCCCTGA_LTGcore_CC_RTGcore_CT] (site ATGTCCCCTGA) (LTG core: CC, RTG core: CT) — within 0.2 log units, 0.137
- ATGTCCCCCTGGGTTCTAACCTGTTGCTCGG [ATGTCCCCTGA_LTGcore_CC_RTGcore_CC] (site ATGTCCCCTGA) (LTG core: CC, RTG core: CC) — within 0.2 log units, 0.0529
- ATGTCCCCGTGGGTTCTAACCTGTTGCTCAG [ATGTCCCCTGA_LTGcore_CG_RTGcore_CT] (site ATGTCCCCTGA) (LTG core: CG, RTG core: CT) — within 0.2 log units, 0.0411
- ATGTCCCCTTGGGTTCTAACCTGTTGCTCAT [ATGTCCCCTGA_LTGcore_CT_RTGcore_AT] (site ATGTCCCCTGA) (LTG core: CT, RTG core: AT) — within 0.2 log units, 0.0302
- ATGTCCCCTTGGGTTCTAACCTGTTGCTCGT [ATGTCCCCTGA_LTGcore_CT_RTGcore_AC] (site ATGTCCCCTGA) (LTG core: CT, RTG core: AC) — within 0.2 log units, 0.161
- ATGTCCCGTTGGGTTCTAACCTGTTGCTCAG [ATGTCCCCTGA_LTGcore_GT_RTGcore_CT] (site ATGTCCCCTGA) (LTG core: GT, RTG core: CT) — within 0.2 log units, 0.0848
- ATGTCCCTCTGGGTTCTAACCTGTTGCTCGA [ATGTCCCCTGA_LTGcore_TC_RTGcore_TC] (site ATGTCCCCTGA) (LTG core: TC, RTG core: TC) — within 0.2 log units, 0.122
- ATGTCCCTTTGGGTTCTAACCTGTTGCTCAG [ATGTCCCCTGA_LTGcore_TT_RTGcore_CT] (site ATGTCCCCTGA) (LTG core: TT, RTG core: CT) — within 0.2 log units, 0.0884
- CATATTAAATGGGTTCTAACCTGTTGCCTAG [CATATTACTAG_LTGcore_AA_RTGcore_CT] (site CATATTACTAG) (LTG core: AA, RTG core: CT) — within 0.2 log units, 0.0356
- CATATTACATGGGTTCTAACCTGTTGCCTTG [CATATTACTAG_LTGcore_CA_RTGcore_CA] (site CATATTACTAG) (LTG core: CA, RTG core: CA) — within 0.2 log units, 0.00594
- CATATTACTTGGGTTCTAACCTGTTGCCTAG [CATATTACTAG_LTGcore_CT_RTGcore_CT] (site CATATTACTAG) (LTG core: CT, RTG core: CT) — within 0.2 log units, 0.22
- CATATTACTTGGGTTCTAACCTGTTGCCTAT [CATATTACTAG_LTGcore_CT_RTGcore_AT] (site CATATTACTAG) (LTG core: CT, RTG core: AT) — within 0.2 log units, 0.0875
- CATATTACTTGGGTTCTAACCTGTTGCCTGC [CATATTACTAG_LTGcore_CT_RTGcore_GC] (site CATATTACTAG) (LTG core: CT, RTG core: GC) — within 0.2 log units, 0.0956
- CATATTACTTGGGTTCTAACCTGTTGCCTGT [CATATTACTAG_LTGcore_CT_RTGcore_AC] (site CATATTACTAG) (LTG core: CT, RTG core: AC) — within 0.2 log units, 0.00796
- CATATTAGCTGGGTTCTAACCTGTTGCCTGC [CATATTACTAG_LTGcore_GC_RTGcore_GC] (site CATATTACTAG) (LTG core: GC, RTG core: GC) — within 0.2 log units, 0
- CATATTAGTTGGGTTCTAACCTGTTGCCTAC [CATATTACTAG_LTGcore_GT_RTGcore_GT] (site CATATTACTAG) (LTG core: GT, RTG core: GT) — within 0.2 log units, 0.1
- CATATTAGTTGGGTTCTAACCTGTTGCCTAG [CATATTACTAG_LTGcore_GT_RTGcore_CT] (site CATATTACTAG) (LTG core: GT, RTG core: CT) — within 0.2 log units, 0.209
- CATATTATCTGGGTTCTAACCTGTTGCCTGA [CATATTACTAG_LTGcore_TC_RTGcore_TC] (site CATATTACTAG) (LTG core: TC, RTG core: TC) — within 0.2 log units, 0.0468
- CATATTATGTGGGTTCTAACCTGTTGCCTCA [CATATTACTAG_LTGcore_TG_RTGcore_TG] (site CATATTACTAG) (LTG core: TG, RTG core: TG) — within 0.2 log units, 0.0228
- CGAGCCCCATGGGTTCTAACCTGTTGCTGAG [CGAGCCCCTCA_LTGcore_CA_RTGcore_CT] (site CGAGCCCCTCA) (LTG core: CA, RTG core: CT) — higher, 1.27
- CGAGCCCCATGGGTTCTAACCTGTTGCTGTG [CGAGCCCCTCA_LTGcore_CA_RTGcore_CA] (site CGAGCCCCTCA) (LTG core: CA, RTG core: CA) — within 0.2 log units, 0.111
- CGAGCCCCGTGGGTTCTAACCTGTTGCTGCG [CGAGCCCCTCA_LTGcore_CG_RTGcore_CG] (site CGAGCCCCTCA) (LTG core: CG, RTG core: CG) — higher, 0.493
- CGAGCCCCTTGGGTTCTAACCTGTTGCTGAA [CGAGCCCCTCA_LTGcore_CT_RTGcore_TT] (site CGAGCCCCTCA) (LTG core: CT, RTG core: TT) — higher, 0.691
- CGAGCCCCTTGGGTTCTAACCTGTTGCTGCC [CGAGCCCCTCA_LTGcore_CT_RTGcore_GG] (site CGAGCCCCTCA) (LTG core: CT, RTG core: GG) — within 0.2 log units, 0.235
- CGAGCCCCTTGGGTTCTAACCTGTTGCTGCG [CGAGCCCCTCA_LTGcore_CT_RTGcore_CG] (site CGAGCCCCTCA) (LTG core: CT, RTG core: CG) — higher, 0.339
- CGAGCCCCTTGGGTTCTAACCTGTTGCTGGA [CGAGCCCCTCA_LTGcore_CT_RTGcore_TC] (site CGAGCCCCTCA) (LTG core: CT, RTG core: TC) — higher, 0.994
- CGAGCCCCTTGGGTTCTAACCTGTTGCTGTG [CGAGCCCCTCA_LTGcore_CT_RTGcore_CA] (site CGAGCCCCTCA) (LTG core: CT, RTG core: CA) — within 0.2 log units, 0.176
- CGAGCCCGGTGGGTTCTAACCTGTTGCTGAG [CGAGCCCCTCA_LTGcore_GG_RTGcore_CT] (site CGAGCCCCTCA) (LTG core: GG, RTG core: CT) — within 0.2 log units, 0.223
- CGAGCCCGTTGGGTTCTAACCTGTTGCTGAC [CGAGCCCCTCA_LTGcore_GT_RTGcore_GT] (site CGAGCCCCTCA) (LTG core: GT, RTG core: GT) — within 0.2 log units, 0.156
- CGAGCCCTATGGGTTCTAACCTGTTGCTGTA [CGAGCCCCTCA_LTGcore_TA_RTGcore_TA] (site CGAGCCCCTCA) (LTG core: TA, RTG core: TA) — within 0.2 log units, 0.083
